Measured values taken from EP2140864A2 (H. Lundbeck A/S, priority 2001, dated 2002).
pKi: −log10 of the molar value. Where two headings read alike, the source gives them in different places.

Columns and labels:
human 5HT1A receptor = target: T1, human 5HT1A receptor (Homo sapiens, UniProt P08908); experiment: Radioligand binding, 5-HT1A receptor (3H-8-OH-DPAT)
T1 construct: expressed in transfected cells; host or cells: COS-7 cells, transient (pCEXV-3 vector)
T1 sequence (P08908 1-422): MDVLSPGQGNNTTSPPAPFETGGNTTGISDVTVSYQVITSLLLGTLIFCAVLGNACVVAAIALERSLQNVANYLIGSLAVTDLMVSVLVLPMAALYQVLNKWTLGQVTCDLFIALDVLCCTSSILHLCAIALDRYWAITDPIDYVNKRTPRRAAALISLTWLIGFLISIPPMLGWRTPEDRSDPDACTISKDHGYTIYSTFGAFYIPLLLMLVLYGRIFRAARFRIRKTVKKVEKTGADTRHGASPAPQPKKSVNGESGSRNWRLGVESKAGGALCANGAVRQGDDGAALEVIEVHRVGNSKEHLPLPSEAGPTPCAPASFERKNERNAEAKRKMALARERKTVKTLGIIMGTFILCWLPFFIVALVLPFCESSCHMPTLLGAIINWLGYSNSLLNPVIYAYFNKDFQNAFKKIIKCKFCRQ
Experimental: 5-HT1A Receptor: The cDNA corresponding to the 5-HT1A receptor open reading frames and variable non-coding 5'-and 3'-regions, was cloned into the eukaryotic expression vector pCEXV-3. These constructs were transfected transiently into COS-7 cells by the DEAE-dextran method (Cullen, 1987), and harvested after 72 hours. Radioligand binding assays were performed as described above for the 5-HT2A receptor, except that ^3H-8-OH-DPAT was used as the radioligand and nonspecific binding was determined by the addition of 10 µM mianserin.
(§1) Binding data were analyzed using nonlinear regression and statistical techniques available in the GraphPAD Prism package (San Diego, CA). Enzymatic assay data were derived from a standard curve of reference compound data.

human 5HT1D = target: T2, human 5HT1D (Homo sapiens, UniProt P28221); experiment: Radioligand binding, 5HT1D receptor ([3H]-serotonin)
T2 construct: expressed in transfected cells
Experimental: (§2) Human 5HT1B, 5HT1D, 5HT1E, 5HT1F, and 5HT7 Receptors: The cell lysates of LM(tk-) clonal cell line stably transfected with the genes encoding each of these 5HT receptor-subtypes were prepared as described above. Cell membranes were suspended in 50mM Tris-HCl buffer (pH 7.4 at 37°C) containing 10 mM MgCl2, 0.2 mM EDTA, 10 µM pargyline, and 0.1% ascorbate. […] Nonspecific binding was determined in the presence of 10 µM serotonin. The bound radioligand was separated by filtration through GF/B filters using a cell harvester.
as §1

human 5HT1E = target: T3, human 5HT1E (Homo sapiens, UniProt P28566); experiment: Radioligand binding, 5HT1E receptor ([3H]-serotonin)
T3 construct: expressed in transfected cells
Experimental: as §2, §1

Human 5HT2A Receptor = target: T4, Human 5HT2A Receptor (Homo sapiens, UniProt P28223); experiment: Radioligand binding, 5HT2A receptor ([3H]ketanserin)
T4 construct: expressed in transfected cells; host or cells: COS-7 cells (pCEXV-3 vector, DEAE-dextran)
Experimental: Human 5HT2A Receptor: The coding sequence of the human 5HT2A receptor was obtained from a human brain cortex cDNA library, and cloned into the cloning site of pCEXV-3 eukaryotic expression vector. This construct was transfected into COS-7 cells by the DEAE-dextran method (Cullen, 1987). Cells were harvested after 72 hours and lysed by sonication in 5 mM Tris-HCl, 5 mM EDTA, pH 7.5. The cell lysates were subjected to centrifugation at 1000 rpm for 5 minutes at 4°C, and the supernatant was subjected to centrifugation at 30,000 x g for 20 minutes at 4°C. The pellet was suspended in 50 mM Tris-HCl buffer (pH 7.7 at room temperature) containing 10 mM MgS04, 0.5 mM EDTA, and 0.1% ascorbate. The affinity of compounds at 5HT2A receptors were determined in equilibrium competition binding assays using [^3H]ketanserin (1 nM). Nonspecific binding was defined by the addition of 10 µM mianserin. The bound radioligand was separated by filtration through GF/B filters using a cell harvester.
as §1

human 5HT6 = target: T5, human 5HT6 (Homo sapiens, UniProt P50406); experiment: Radioligand binding, 5-HT6 receptor
T5 construct: expressed in transfected cells
Experimental: Other 5-HT Receptors: Other serotonin receptor binding assays were performed according to published methods: rat 5HT2C receptor (Julius et al., 1988); and 5-HT6 (Monsma, et al., 1993). The binding assays using the 5-HT4 receptor were performed according to the procedures described in U.S. Patent No. 5,766,879, the disclosure of which is hereby incorporated by reference in its entirety into this application.
as §1

human dopamine D4 = target: T6, human dopamine D4 (Homo sapiens, UniProt P21917); experiment: Radioligand binding, dopamine D4 receptor
T6 construct: purchased BioSignal, Inc. (Montreal, Canada)
T6 sequence (P21917 1-419): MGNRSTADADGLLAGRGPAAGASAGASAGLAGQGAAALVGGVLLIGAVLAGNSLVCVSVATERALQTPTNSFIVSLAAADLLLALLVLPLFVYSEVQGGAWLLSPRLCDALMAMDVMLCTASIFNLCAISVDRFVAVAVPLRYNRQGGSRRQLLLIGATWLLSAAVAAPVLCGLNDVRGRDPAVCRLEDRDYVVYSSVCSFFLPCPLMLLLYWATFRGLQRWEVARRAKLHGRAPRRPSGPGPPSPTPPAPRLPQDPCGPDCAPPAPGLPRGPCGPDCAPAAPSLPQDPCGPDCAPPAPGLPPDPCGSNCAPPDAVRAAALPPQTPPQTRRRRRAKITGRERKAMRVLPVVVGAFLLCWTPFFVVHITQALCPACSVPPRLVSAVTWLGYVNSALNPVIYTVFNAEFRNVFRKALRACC
Excerpt: Other receptors: Cell membranes expressing human dopamine D1, D2, D4 and rat D3 receptors were purchased through BioSignal, Inc. (Montreal, Canada). Binding assays using the histamine H1 receptor; dopamine receptors; and α1A, α1E, and α2 adrenergic receptors may be carried out according to the procedures described in U.S. Patent No. 5,780,485, the disclosure of which is hereby incorporated by reference in its entirety into this application. Binding assays using the dopamine D5 receptor may be carried out according to the procedures described in U.S. Patent No. 5,882,855, the disclosure of which is hereby incorporated by reference in its entirety into this application. Binding assays for the human α1D adrenergic receptor may be carried out according to the procedures described in U.S. Patent No. 6,156,518, the disclosure of which is hereby incorporated by reference in its entirety into this application.
as §1

[1] = Table 8; Ki h5HT1A divided by Ki hGAL3
[2] = Table 8; Ki h5HT1D divided by Ki hGAL3
[3] = Table 8; Ki h5HT1E divided by Ki hGAL3
[4] = Table 8; Ki h5HT2A divided by Ki hGAL3
[5] = Table 8; Ki h5HT6 divided by Ki hGAL3
[6] = Table 10; Ki hD4 divided by Ki hGAL3

T5 sequence (P50406 whole entry): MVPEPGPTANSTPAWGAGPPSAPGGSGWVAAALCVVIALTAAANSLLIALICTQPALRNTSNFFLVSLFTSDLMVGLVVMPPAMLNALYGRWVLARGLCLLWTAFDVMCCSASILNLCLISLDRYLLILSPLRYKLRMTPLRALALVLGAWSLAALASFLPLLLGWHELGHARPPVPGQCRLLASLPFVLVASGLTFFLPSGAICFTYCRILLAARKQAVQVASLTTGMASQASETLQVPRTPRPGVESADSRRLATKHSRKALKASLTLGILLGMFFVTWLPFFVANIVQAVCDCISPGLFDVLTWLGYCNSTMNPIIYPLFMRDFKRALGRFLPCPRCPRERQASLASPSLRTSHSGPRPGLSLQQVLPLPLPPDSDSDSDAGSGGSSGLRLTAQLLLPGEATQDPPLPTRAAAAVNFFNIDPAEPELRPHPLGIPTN
T2 sequence (P28221 whole entry): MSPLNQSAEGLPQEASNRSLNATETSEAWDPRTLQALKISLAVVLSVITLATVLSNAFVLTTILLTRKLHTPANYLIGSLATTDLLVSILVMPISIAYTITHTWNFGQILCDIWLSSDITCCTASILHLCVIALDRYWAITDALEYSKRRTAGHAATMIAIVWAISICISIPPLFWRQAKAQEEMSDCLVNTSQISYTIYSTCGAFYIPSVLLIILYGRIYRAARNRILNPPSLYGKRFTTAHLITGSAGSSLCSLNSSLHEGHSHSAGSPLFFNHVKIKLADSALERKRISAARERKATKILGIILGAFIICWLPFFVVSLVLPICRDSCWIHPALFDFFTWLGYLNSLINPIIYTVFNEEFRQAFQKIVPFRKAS
T3 sequence (P28566 whole entry): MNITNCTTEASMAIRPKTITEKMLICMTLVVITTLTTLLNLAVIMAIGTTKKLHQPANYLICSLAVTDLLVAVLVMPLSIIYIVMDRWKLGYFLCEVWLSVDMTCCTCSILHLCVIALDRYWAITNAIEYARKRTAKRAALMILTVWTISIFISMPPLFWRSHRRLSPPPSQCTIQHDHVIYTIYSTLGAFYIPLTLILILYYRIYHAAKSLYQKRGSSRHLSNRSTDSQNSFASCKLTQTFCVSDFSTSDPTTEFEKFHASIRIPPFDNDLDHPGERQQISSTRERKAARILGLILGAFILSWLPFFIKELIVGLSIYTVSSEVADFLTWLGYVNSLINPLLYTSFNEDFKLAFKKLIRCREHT
T4 sequence (P28223 whole entry): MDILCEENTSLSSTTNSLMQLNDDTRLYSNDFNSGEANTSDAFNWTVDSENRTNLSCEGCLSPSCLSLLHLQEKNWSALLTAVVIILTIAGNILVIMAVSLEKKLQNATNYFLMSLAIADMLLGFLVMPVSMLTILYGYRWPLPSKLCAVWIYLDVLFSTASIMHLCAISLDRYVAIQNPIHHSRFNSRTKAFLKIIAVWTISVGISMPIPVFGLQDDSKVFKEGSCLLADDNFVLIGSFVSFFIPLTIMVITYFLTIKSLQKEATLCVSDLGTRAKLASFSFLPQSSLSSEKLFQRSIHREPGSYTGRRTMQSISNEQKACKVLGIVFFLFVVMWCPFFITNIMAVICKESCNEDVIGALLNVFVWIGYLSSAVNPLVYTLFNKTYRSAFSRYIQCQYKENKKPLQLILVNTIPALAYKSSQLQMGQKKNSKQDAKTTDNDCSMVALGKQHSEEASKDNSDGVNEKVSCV

Row | Compound | pKi (human 5HT1A receptor; Table 7; read-out: h5HT1A Ki) | selectivity ratio h5HT1A (human 5HT1A receptor; [1]) | pKi (human 5HT1D; Table 7; read-out: h5HT1D Ki) | selectivity ratio h5HT1D (human 5HT1D; [2]) | pKi (human 5HT1E; Table 7; read-out: h5HT1E Ki) | selectivity ratio h5HT1E (human 5HT1E; [3]) | pKi (Human 5HT2A Receptor; Table 7; read-out: h5HT2A Ki) | selectivity ratio h5HT2A (Human 5HT2A Receptor; [4]) | pKi (human 5HT6; Table 7; read-out: h5HT6 Ki) | selectivity ratio h5HT6 (human 5HT6; [5]) | pKi (human dopamine D4; Table 9; read-out: hD4 Ki) | selectivity ratio hD4 (human dopamine D4; [6]) | pKi (human 5HT1A receptor; read-out: h5HT1A Ki; Table 7) | pKi (human 5HT1D; read-out: h5HT1D Ki; Table 7) | pKi (human 5HT1E; read-out: h5HT1E Ki; Table 7) | pKi (Human 5HT2A Receptor; read-out: h5HT2A Ki; Table 7) | pKi (human 5HT6; read-out: h5HT6 Ki; Table 7) | pKi (human dopamine D4; read-out: hD4 Ki; Table 9)
1 | Cc1ccc(Nc2cc(N3CCCCC3)nc(N(C)CCc3c[nH]c4ccccc34)n2)cc1 [Example 11] | 5.33 | >30 | 6.99 | 1 | 5.04 | >100 | 5.17 | >30 | 6.10 | 9 | 5.32 | >30 | – | – | – | – | – | –
2 | O=C1C(=Nc2ccc(Br)cc2)c2ccccc2N1c1ccccc1 [Example 98, 3-[(4-BROMOPHENYL)IMINO]-1-PHENYL-1,3-DIHYDRO-2H-INDOL-2-ONE] | 4.61 | >100 | 5.04 | >100 | 4.79 | >100 | < 4.30 | >100 | 4.85 | >100 | < 4.30 | >100 | – | – | – | – | – | –
3 | O=C1C(=Nc2ccc(C(F)(F)F)cc2)c2ccccc2N1c1ccccc1 [Example 95, 1-PHENYL-3-[[4-(TRIFLUOROMETHYL)PHENYL]IMINO]-1,3-DIHYDRO-2H-INDOL-2-ONE] | 4.55 | >100 | 4.80 | >100 | 4.57 | >100 | < 4.30 | >100 | 4.67 | >100 | < 4.30 | >100 | – | – | – | – | – | –
4 | O=C1C(=Nc2ccc(Cl)cc2)c2ccccc2N1c1ccccc1 [Example 97, 3-[(4-CHLOROPHENYL)IMINO]-1-PHENYL-1,3-DIHYDRO-2H-INDOL-2-ONE] | < 4.30 | >100 | 4.85 | >100 | 4.64 | >100 | < 4.30 | >100 | 4.54 | >100 | < 4.30 | >100 | – | – | – | – | – | –
5 | O=C1C(=Nc2cccc(C(F)(F)F)c2)c2ccccc2N1c1ccccc1 [Example 92, 1-PHENYL-3- [[3-(TRIFLUOROMETHYL)PHENYL]IMINO]-1,3-DIHYDRO-2H-INDOL-2-ONE] | – | >100 | – | >100 | – | >100 | – | >100 | – | >100 | – | >100 | – | – | – | – | – | –
6 | Cc1ccc(Nc2cc(N3CCCCC3)nc(N3CCN(c4ncccc4C(F)(F)F)CC3)n2)cc1 [Example 34] | – | >100 | 5.53 | >100 | 4.55 | >100 | – | >100 | 4.41 | >100 | 4.73 | >100 | – | – | – | – | – | –
7 | CN(C)c1cc(Nc2ccc(Cl)c(Cl)c2)nc(Nc2ccccc2)n1 [Example 60] | 4.47 | >100 | 5.04 | >100 | 5.93 | 14 | 4.58 | >100 | 4.32 | >100 | 4.31 | >100 | – | – | – | – | – | –
8 | COC[C@@H]1[C@@H](c2ccccc2)OCCN1c1nc(Nc2ccc(C)cc2)cc(N2CCCCC2)n1 [Example 49] | – | >100 | – | >30 | – | >100 | – | >100 | – | – | – | >100 | 4.53 | 4.77 | 4.62 | < 4.30 | 7.89 | 4.34
9 | O=C1C(=Nc2cccc(Cl)c2)c2ccccc2N1c1ccccc1 [Example 94, 3-[(3-CHLOROPHENYL)IMINO]-1-PHENYL-1,3-DIHYDRO-2H-INDOL-2-ONE] | < 4.30 | >100 | 4.97 | >100 | 4.60 | >100 | < 4.30 | >100 | 5.44 | >30 | < 4.30 | >100 | – | – | – | – | – | –
10 | COc1cccc(Nc2cc(N3CCCCC3)nc(N(C)CCc3c[nH]c4ccccc34)n2)c1 [Example 17] | 5.46 | >30 | 5.99 | 12 | 4.47 | >100 | 5.15 | >30 | 6.15 | 8 | 4.65 | >100 | – | – | – | – | – | –
11 | Cc1ccc(Nc2cc(N3CCCCC3)nc(N(C)CCc3ccccc3)n2)cc1 [Example 22] | 5.01 | >100 | 5.73 | >30 | 4.88 | >100 | 4.68 | >100 | 5.65 | >30 | 4.93 | >100 | – | – | – | – | – | –
